Measured values as given in patent publication US11970473B2, “Nootkatone derivatives and methods of using the same” (Arkansas State University—Jonesboro, priority 2021, dated 2024).
Converted amounts (≈) assume the structure as drawn.

Tests used:
[1] = tested on: S. aureus ATCC 700699 and S. aureus ATCC 33591; experiment: Time-Kill Assay; type: cell-based; settings: 4×MIC
Procedure: Time kill assay for test antibiotics against S. aureus ATCC 700699 and S. aureus ATCC 33591 strains was conducted using procedures published previously.^26 Briefly, a log-phase bacterial culture was diluted to ˜5×10^6 CFU/ml in warm sterile CAMHB broth and was exposed to antibiotics at 4×MIC concentration then incubated at 35° C. Samples of 20 μl were taken every 2 hours, diluted 10 fold to 10^−5, and the 6×6 drop plate method was performed to determine viable CFU/ml after 18-24 hours of incubation at 35° C. Each antibiotic time-kill assay was conducted in triplicate.

S. aureus strains = experiment: MIC, summary over S. aureus strains; type: cell-based; settings: Staphylococcus aureus; lowest MIC over S. aureus strains; read-out: minimum inhibitory concentration (MIC) value as low as
Procedure: (§1) Minimal inhibitory concentration (MIC) assay The standard microdilution method recommended by the Clinical and Laboratory Standards Institute (CLSI) was used to determine the MIC of the antibiotics. The starting concentration of compounds was 50 μg/ml and 2-fold dilution was done down the 96 honeycomb well plate column. The MIC assay was conducted in triplicates.

[2] = tested on: S. aureus ATCC 33592 (Sa92); experiment: Minimal inhibitory concentration (MIC) assay; type: cell-based; settings: Staphylococcus aureus, ATCC33592; S. aureus ATCC 33592, antibiotic-resistant strain; read-out: Antimicrobial activity (MIC) Sa92
Procedure: as §1

[3] = tested on: S. aureus ATCC 33591 (Sa91); experiment: Minimal inhibitory concentration (MIC) assay; type: cell-based; settings: Staphylococcus aureus, ATCC33591; S. aureus ATCC 33591, antibiotic-resistant strain; read-out: Antimicrobial activity (MIC) Sa91
Procedure: as §1

[4] = tested on: S. aureus ATCC 25923 (Sa23); experiment: Minimal inhibitory concentration (MIC) assay; type: cell-based; settings: Staphylococcus aureus, ATCC25923; S. aureus ATCC 25923, antibiotic susceptible strain; read-out: Antimicrobial activity (MIC) Sa23
Procedure: as §1

[5] = tested on: S. aureus ATCC 700699 (Sa99); experiment: Minimal inhibitory concentration (MIC) assay; type: cell-based; settings: Staphylococcus aureus, ATCC700699; S. aureus ATCC 700699, antibiotic-resistant strain; read-out: Antimicrobial activity (MIC) Sa99
Procedure: as §1

[6] = tested on: S. aureus BAA-2312 (Sa12); experiment: Minimal inhibitory concentration (MIC) assay; type: cell-based; settings: Staphylococcus aureus, BAA2312; S. aureus BAA-2312, antibiotic-resistant strain; read-out: Antimicrobial activity (MIC) Sa12
Procedure: as §1

[7] = tested on: B. subtilis ATCC 6623 (Bs); experiment: Minimal inhibitory concentration (MIC) assay; type: cell-based; settings: Bacillus subtilis, ATCC6623; B. subtilis ATCC 6623; read-out: Antimicrobial activity (MIC) Bs
Procedure: as §1

[8] = tested on: Enterococcus faecium ATCC 700221 (Em21); experiment: Minimal inhibitory concentration (MIC) assay; type: cell-based; settings: Enterococcus faecium, ATCC700221, Enterococcus faecium ATCC 700221; read-out: Antimicrobial activity (MIC) Em21
Procedure: as §1

[9] = tested on: Enterococcus faecalis ATCC 29212 (Es12); experiment: Minimal inhibitory concentration (MIC) assay; type: cell-based; settings: ATCC29212; Enterococcus faecalis ATCC 29212; read-out: Antimicrobial activity (MIC) Es12
Procedure: as §1

[10] = tested on: treated bacteria (differentially expressed proteins); experiment: Quantitative proteomics: protein regulation by Compound 16 versus DMSO control
MRSA persisters = experiment: Persister Cell Killing Assay
Procedure: A persister cell killing assay was performed following the methodology described by Kim et. al. with some modifications.^28 S. aureus strain was grown to stationary phase in CAMHB medium by shaking at 200 rpm overnight at 35° C. An aliquot of stationary phase culture (1 ml) was washed thrice with 1×PBS by centrifugation. After washing, the cells were diluted to ˜5×10^8 CFU/ml (confirmed by plate count). Diluted persister cells (2 ml) plus antibiotics at the desired concentration were incubated in sterile 10×75 mm plastic culture tubes at 35° C. with shaking at 200 rpm. At specific times, 400 μl aliquots were placed into microcentrifuge tubes and the cells washed and serially diluted in PBS. The diluted sample was plated on TSA agar plate with 5% sheep blood by the 6×6 drop plate method. Plates were incubated for 18-20 hours at 35° C., and then colonies were counted to calculate concentrations in CFU/ml. The experiment was performed in triplicates.

C=C(C)[C@@H]1CC=C2c3sc(-c4ccc(O)c(O)c4)nc3C[C@@H](C)[C@]2(C)C1 [Compound 16]
eliminated bacteria at [1]: 6 h
time kill assay: mode of action [1]: bactericidal
MIC (S. aureus strains): 3.12 µg/mL (≈ 8.5 µM)
MIC [2]: 3.12 µg/mL (≈ 8.49 µM)
MIC [3]: 6.25 µg/mL (≈ 17 µM)
MIC [4]: 3.12 µg/mL (≈ 8.49 µM)
MIC [5]: 3.12 µg/mL (≈ 8.49 µM)
MIC [6]: 3.12 µg/mL (≈ 8.49 µM)
MIC [7]: 12.5 µg/mL (≈ 34 µM)
MIC [8]: 1.56 µg/mL (≈ 4.24 µM)
MIC [9]: 12.5 µg/mL (≈ 34 µM)
Log(FC) ([10]; gene SAV0307 (A0A0H3JQ49): Similar to outer membrane protein, ⅛ MIC): 1.313
Log(FC) ([10]; gene SAV0486: Initiation-control protein YabA, ⅛ MIC): −1.076
Log(FC) ([10]; gene SAV0831: Similar to thioredoxin, ⅛ MIC): −1.298
Log(FC) ([10]; gene SAV1155 (A0A0H3JUX1): Fibrinogen-binding protein, ⅛ MIC): 4.341
Log(FC) ([10]; gene SAV1291: Thiamine_BP domain-containing protein, ⅛ MIC): −1.399
Log(FC) ([10]; gene SAV1556: ABC transporter MreA, ⅛ MIC): −1.267
Log(FC) ([10]; gene SAV1615: UPF0473 protein SAV1615, ⅛ MIC): −1.3145
Log(FC) ([10]; gene SAV1617: UPF0297 protein SAV1617, ⅛ MIC): −2.321
Log(FC) ([10]; gene SAV1876: Uncharacterized protein, ⅛ MIC): −3.169
Log(FC) ([10]; gene SAV1880: UPF0435 protein SAV1880, ⅛ MIC): −1.529
Log(FC) ([10]; gene SAV2592: 3-dmu-9_3-mt domain-containing protein, ⅛ MIC): −1.105
Log(FC) ([10]; gene acpP: Acyl carrier protein, ⅛ MIC): −1.463
Log(FC) ([10]; gene coa (A0A0H3JPA2): Staphylocoagulase, ⅛ MIC): 4.524
Log(FC) ([10]; gene esxA: Type VII secretion system extracellular protein A, ⅛ MIC): −1.698
Log(FC) ([10]; gene ftnA: Bacterial non-heme ferritin, ⅛ MIC): −1.122
Log(FC) ([10]; gene gate: Aspartyl/glutamyl-tRNA (Asn/Gln) amidotransferase subunit C, ⅛ MIC): −2.722
Log(FC) ([10]; gene hit: Hit-like protein involved in cell-cycle regulation, ⅛ MIC): −1.253
Log(FC) ([10]; gene lip1 (P65288): Lipase 1, ⅛ MIC): 1.631
Log(FC) ([10]; gene mecA (A0A0H3JPA5): Penicillin binding protein 2 prime, ⅛ MIC): 1.378
Log(FC) ([10]; gene moaD: Molybdopterin synthase sulfur carrier subunit, ⅛ MIC): −1.617
Log(FC) ([10]; gene narG: Nitrate reductase (quinone), ⅛ MIC): −1.5746
Log(FC) ([10]; gene nasD: Nitrite reductase, ⅛ MIC): −1.201
Log(FC) ([10]; gene rsbV: Anti-sigma-B factor antagonist, ⅛ MIC): −1.199
Log(FC) ([10]; gene sbi (Q931F4): Immunoglobulin-binding protein Sbi, ⅛ MIC): 1.71
ability to kill MRSA persisters (MRSA persisters): inhibited the growth of persisters significantly
CFU count (MRSA persisters; after 4 hrs exposure, 128×MIC): 2×10^7 CFU
potency against the persister compared with positive controls (MRSA persisters; versus vancomycin and gentamicin): several fold more potent than the positive controls
